Source: patent publication US20110151033A1, “ORTHOSIPHON STAMINEUS EXTRACTS FOR USE AS A COGNITION ENHANCER” (BIOTROPICS MALAYSIA BHD, priority 2009, published 2011)

These molecules were tested against T1, ADORA2A (Homo sapiens, UniProt P29274) (assay: ADORA2A in vitro receptor assay, [3H]CGS-21680 radioligand binding). Details: human recombinant HEK-293 cells, 0.05 μM [3H] CGS-21680.
T1 construct: host or cells: HEK-293
Experimental: The methods employed in this study have been adapted from the scientific literature (Varani K, Gessi S, Dalpiaz A, Borea P A (1996) Br. J. Pharmacol. 117, 1693 Pharmacological and biochemical characterization of purified A2A adenosine receptors in human platelet membranes by [3H]CGS-21680 binding) to maximize reliability and reproducibility. Reference standards are run as an integral part of each assay to ensure the validity of the results obtained. Assays are performed under conditions described below. (assay number 200610, Ricerca Biosciences, LLC, Taipei, Taiwan). • Source: Human recombinant HEK-293 cells • Ligand: 0.05 μM [3H]

T1 sequence (P29274 whole entry): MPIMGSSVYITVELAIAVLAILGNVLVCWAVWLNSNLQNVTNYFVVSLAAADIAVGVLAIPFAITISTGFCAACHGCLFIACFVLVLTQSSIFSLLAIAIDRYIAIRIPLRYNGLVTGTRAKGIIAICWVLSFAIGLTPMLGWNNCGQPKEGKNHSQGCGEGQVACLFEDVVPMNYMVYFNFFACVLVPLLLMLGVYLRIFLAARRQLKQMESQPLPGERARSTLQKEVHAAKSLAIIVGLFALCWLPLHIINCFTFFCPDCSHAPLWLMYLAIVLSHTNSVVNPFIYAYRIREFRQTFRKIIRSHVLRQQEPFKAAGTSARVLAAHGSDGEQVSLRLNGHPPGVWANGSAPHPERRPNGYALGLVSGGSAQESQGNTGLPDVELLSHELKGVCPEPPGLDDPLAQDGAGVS

Structure (SMILES)	inhibition at 10 µM [%]
C=CC1C(OC(=O)c2ccccc2)C2C(O)(C(=O)C1(C)O)C(OC(C)=O)CC1C(C)(C)C(OC(C)=O)C(OC(C)=O)C(OC(=O)c3ccccc3)C12C (stereo not drawn) [[8], Staminol A]	42
C=C[C@@]1(C)C[C@@H](OC(=O)c2ccccc2)[C@H]2[C@](O)(C1=O)[C@H](OC(C)=O)C[C@H]1C(C)(C)[C@H](O)[C@H](OC(C)=O)[C@H](OC(=O)c3ccccc3)[C@@]12C [[4], Orthosiphol A]	42
C=CC1C(OC(=O)c2ccccc2)C2C(O)(C(=O)C1(C)O)C(OC(C)=O)CC1C(C)(C)C(O)C(OC(C)=O)C(OC(=O)c3ccccc3)C12C (stereo not drawn) [[7], Neoorthosiphol A]	64
C=C[C@@]1(C)CC(=O)[C@H]2[C@](O)(C1=O)[C@H](OC(C)=O)C[C@H]1C(C)(C)[C@H](OC(=O)c3ccccc3)[C@H](OC(C)=O)[C@H](OC(=O)c3ccccc3)[C@@]12C [[6], Orthosiphonone A]	42
C=C[C@@]1(C)C[C@@H](OC(=O)c2ccccc2)[C@@H]2[C@@]3(C)C=C(OC(C)=O)C(=O)C(C)(C)[C@@H]3C[C@@H](OC(C)=O)[C@@]2(O)C1=O [[5], Orthosiphol D]	52

The molecules below were run on mature adult rat (assay: Social Recognition Test (SRT), in vivo). Details: 3 mg/kg, same administration regime.
Experimental: The method, which detects memory enhancing activity, follows that described by Lemaire et al. (Psychopharmacology, 115, 435-440, 1994). An unfamiliar juvenile rat was introduced into the individual home cage of a mature adult rat for 5 minutes. Following this first contact (C1), the juvenile was returned to its isolation cage, until a second contact of 5 minutes with the same mature adult rat (C2), 120 minutes later was allowed.
The time the adult rat spended investigating (sniffing, grooming, licking, closely following) the juvenile at each contact was recorded. A recognition index (=C2/C1) was calculated. Under such conditions, a mature adult rat fails to recognize the juvenile as familiar, as indicated by an absence of reduction in the duration of social investigatory behaviour at C2.
12 rats were studied per group (in total 3 groups, vehicle, test compound, positive control). The test was performed blind. The test compound (e.g. the extract according example 3) was evaluated at a dose of 1 g/kg administered p.o. immediately after Cl (i.e. 120 minutes before C2), and compared with a vehicle control group. The test substance was dispersed in 4% Cremophor El, (polyoxyethylated castor oil, BASF, Ludwigshafen, Germany) in physiological saline which served as the vehicle. […] Data were analyzed by comparing treated groups with appropriate control using unpaired Student's t tests. […]

Structure (SMILES)	effect of the positive control (presumably on the Recognition Index) [%]
COc1cc2c(cc1OC)C(=O)C(CC1CCN(Cc3ccccc3)CC1)C2 (stereo not drawn) [Donepezil]	−28
